# Test results taken from patent US10045978B2 (AB SCIENCE, priority 2010, dated 2018).
# System: patients with smoldering systemic, indolent systemic or cutaneous mastocytosis with handicap
# Assay: phase 3 study AB06006, masitinib versus placebo
# Type: in vivo, human
# Source text: The trial lasted 24 weeks with possible extension. In accordance with protocol amendment version 7.0 (v7), the study population was amended to a more restricted subpopulation of mastocytosis. […] The trial lasted 24 weeks with possible extension. […] To be noted, for the purpose of efficacy analysis a patient was classified as severe if they suffered from at least one of the main handicaps constituting the primary endpoint: […] The criterion of “at least two of the following handicaps” including handicaps on stools and micturition, was relaxed to “at least one of the main handicaps” (i.e. pruritus, flushes, depression and fatigue). […] At each patient evaluation between weeks 8 and 24, each of the above four severe symptoms was evaluated. […] In this case, missing data was imputed as failure (missing=failure as primary analysis). • Case 2: discontinuation for a documented reason excluding toxicity or lack of efficacy. In this case, non-observed values can be considered as Missing At Random (MAR), and no imputation will be done (Observed Cases). • Replacement of missing value for patients present at the visit: If data was missing despite the patient being present at the visit, said missing data was not replaced. Secondary Analysis: […] (asthenia). • A second group comprised patients diagnosed as having severe indolent systemic mastocytosis, severe smoldering systemic mastocytosis, or severe cutaneous mastocytosis. […] This group provides comparative analysis for patient selection according to variant of mastocytosis (i.e. systemic versus cutaneous). • A third group comprised all randomized patients to study AB06006, corresponding therefore to the least restricted population, comprising patients with severe/non severe indolent and smoldering systemic mastocytosis, and severe/non severe cutaneous mastocytosis. This group provides comparative analysis based on patient selection according to severity of mast cell mediator release symptoms. […] ≥40. Diff=absolute difference in response rates between treatment-arms of a given population (masitinib arm minus placebo arm). Factor Diff=ratio of 'Diff' between compared populations showing relative superiority of response rate for severe systemic population over the comparator population. […] ****PF=patients with both pruritus and flushes handicap at baseline.
# [1] = moderate baseline handicap, all patients
# [2] = moderate baseline handicap, all patients (n = 110)
# [3] = moderate baseline handicap, severe indolent/smoldering systemic
# [4] = moderate baseline handicap, severe indolent/smoldering systemic (n = 67)
# [5] = moderate baseline handicap, severe systemic vs all patients
# [6] = severe baseline handicap, severe cutaneous/indolent/smoldering
# [7] = severe baseline handicap, severe cutaneous/indolent/smoldering (n = 110)
# [8] = severe baseline handicap, severe indolent/smoldering systemic
# [9] = severe baseline handicap, severe indolent/smoldering systemic (n = 67)
# [10] = severe baseline handicap, severe systemic vs severe cutaneous/indolent/smoldering
structure (smiles),measurement,setting,value
"Cc1ccc(NC(=O)c2ccc(CN3CCN(C)CC3)cc2)cc1Nc1nc(-c2cccnc2)cs1 [masitinib, 4-(4-methylpiperazin-1-ylmethyl)-N-[4-methyl-3-(4-pyridin-3ylthiazol-2-ylamino)phenyl]benzamide]",2H[75%] Diff (masitinib arm minus placebo arm),[1],2.9%
same,3H[75%] Diff (masitinib arm minus placebo arm),[1],2.3%
same,4H[75%] Diff (masitinib arm minus placebo arm),[1],0.4%
same,PF Diff (masitinib arm minus placebo arm),[1],0.2%
same,2H[75%] cumulative response,[2],23.3%
same,3H[75%] cumulative response,[2],20.3%
same,4H[75%] cumulative response,[2],16.3%
same,PF cumulative response,[2],26.9%
same,2H[75%] Diff (masitinib arm minus placebo arm),[3],12.2%
same,3H[75%] Diff (masitinib arm minus placebo arm),[3],12.8%
same,4H[75%] Diff (masitinib arm minus placebo arm),[3],10.1%
same,PF Diff (masitinib arm minus placebo arm),[3],10.7%
same,2H[75%] cumulative response,[4],28.2%
same,3H[75%] cumulative response,[4],24.8%
same,4H[75%] cumulative response,[4],19.6%
same,PF cumulative response,[4],28.7%
same,2H[75%] Factor Diff,[5],4.2
same,3H[75%] Factor Diff,[5],5.6
same,4H[75%] Factor Diff,[5],25.3
same,PF Factor Diff,[5],53.5
same,2H[75%] Diff (masitinib arm minus placebo arm),[6],7.4%
same,3H[75%] Diff (masitinib arm minus placebo arm),[6],6.3%
same,4H[75%] Diff (masitinib arm minus placebo arm),[6],3.3%
same,PF Diff (masitinib arm minus placebo arm),[6],6.9%
same,2H[75%] cumulative response,[7],22.0%
same,3H[75%] cumulative response,[7],20.0%
same,4H[75%] cumulative response,[7],15.4%
same,PF cumulative response,[7],30.6%
same,2H[75%] Diff (masitinib arm minus placebo arm),[8],16.5%
same,3H[75%] Diff (masitinib arm minus placebo arm),[8],15.2%
same,4H[75%] Diff (masitinib arm minus placebo arm),[8],11.1%
same,PF Diff (masitinib arm minus placebo arm),[8],17.8%
same,2H[75%] cumulative response,[9],27.2%
same,3H[75%] cumulative response,[9],24.9%
same,4H[75%] cumulative response,[9],18.6%
same,PF cumulative response,[9],35.4%
same,2H[75%] Factor Diff,[10],2.2
same,3H[75%] Factor Diff,[10],2.4
same,4H[75%] Factor Diff,[10],3.4
same,PF Factor Diff,[10],2.6
